Experimental data taken from ChEMBL document CHEMBL6083277, “Discovery of SZJK-0421: A Novel Potent, Low Toxicity, Selective Second Generation of CRM1 Inhibitor for the Treatment of Both Hematological and Solid Tumors” (J Med Chem, 2024).
One block for each molecule: values may come before it. Calls of active or inactive are those of the source. The rule behind the calls is not given here.

Columns and labels:
KMS-11 = test: Antiproliferative activity against human KMS-11 cells assessed as inhibition of cell growth incubated for 72 hrs by celltiter-glo assay; assay type: functional, cell-based; conditions: KMS-11, 72 h
[1] = Metabolic stability in mouse liver microsomes assessed as intrinsic clearance measured upto 60 mins in presence of NADPH by LC/MS-MS analysis; assay type: ADME, Microsome; conditions: read-out: CLH
[2] = Metabolic stability in human liver microsomes assessed as half life measured upto 60 mins in presence of NADPH by LC/MS-MS analysis; assay type: ADME, Microsome
MM1.S [3] = test: Induction of apoptosis in human MM1.S cells assessed as increase in FOXO3A signal intensity; assay type: functional, cell-based
[4] = Toxicity in BALB/c mouse assessed as appearance of erectile hair at 60 mg/kg, po administered once daily for 21 days; assay type: organism-based; conditions: in vivo, 504 h, time 21 day
[5] = Antiproliferative activity against human ARP-1 cells assessed as inhibition of cell growth incubated for 72 hrs by celltiter-glo assay; assay type: functional, cell-based; conditions: ARP-1, 72 h
[6] = Toxicity in BALB/c mouse assessed as appearance of loose stools at 60 mg/kg, po administered once daily for 21 days; assay type: organism-based; conditions: in vivo, 504 h, time 21 day
BXPC-3 = test: Antiproliferative activity against human BXPC-3 cells assessed as inhibition of cell growth incubated for 72 hrs by celltiter-glo assay; assay type: functional, cell-based; conditions: BXPC-3, 72 h
[7] = Metabolic stability in human liver microsomes assessed as intrinsic clearance measured upto 60 mins in presence of NADPH by LC/MS-MS analysis; assay type: ADME, Microsome; conditions: read-out: CLH
[8] = Toxicity in NOD-SCID mouse assessed as loss of crypt depth in intestine at 60 mg/kg, po measured every 2 days for 21 days by H and E staining based analysis; assay type: organism-based; conditions: in vivo, 504 h, time 21 day
[9] = Metabolic stability in dog liver microsomes assessed as intrinsic clearance measured upto 60 mins in presence of NADPH by LC/MS-MS analysis; assay type: ADME, Canis lupus familiaris, Microsome; conditions: read-out: CLH
[10] = target: Exportin-1 (Homo sapiens) (UniProt O14980); test: Reversible binding affinity to CRM1 in human U2OS cells incubated for 4 hrs by DAPI staining based fluorescence microscopic analysis; assay type: cell-based
ARH-77 = test: Antiproliferative activity against human ARH-77 cells assessed as inhibition of cell growth incubated for 72 hrs by celltiter-glo assay; assay type: functional, cell-based; conditions: ARH-77, 72 h
[11] = AUC (0 to infinity) in male Sprague-Dawley rat at 10 mg/kg, po measured upto 30 hrs by LC-MS/MS analysis; assay type: ADME, organism-based; conditions: in vivo
[12] = Cmax in male Sprague-Dawley rat plasma at 10 mg/kg, IG measured at 6 hrs by LC-MS/MS analysis; assay type: ADME, organism-based; conditions: po
MOLM-13 = test: Antiproliferative activity against human MOLM-13 cells assessed as inhibition of cell growth incubated for 72 hrs by celltiter-glo assay; assay type: functional, cell-based; conditions: MOLM-13, 72 h
[13] = Oral bioavailability in male Sprague-Dawley rat at 10 mg/kg measured upto 30 hrs by LC-MS/MS analysis; assay type: ADME, organism-based; conditions: in vivo
[14] = Metabolic stability in mouse liver microsomes assessed as half life measured upto 60 mins in presence of NADPH by LC/MS-MS analysis; assay type: ADME, Microsome
[15] = Metabolic stability in monkey liver microsomes assessed as half life measured upto 60 mins in presence of NADPH by LC/MS-MS analysis; assay type: ADME, Macaca mulatta, Microsome; conditions: rhesus monkey
[16] = Cmax in male Sprague-Dawley rat at 10 mg/kg, po measured upto 30 hrs by LC-MS/MS analysis; assay type: ADME, organism-based; conditions: in vivo
[17] = Tmax in male Sprague-Dawley rat at 10 mg/kg, po measured upto 30 hrs by LC-MS/MS analysis; assay type: ADME, organism-based; conditions: in vivo
[18] = Toxicity in NOD-SCID mouse implanted with human MM1.S cells assessed as body weight loss at 15 mg/kg, po measured upto 21 days; assay type: organism-based; conditions: in vivo, 504 h, time < 21 day
[19] = AUC in male Sprague-Dawley rat brain at 10 mg/kg, IG measured at 6 hrs by LC-MS/MS analysis; assay type: ADME, organism-based; conditions: po
MV4-11 = test: Antiproliferative activity against human MV4-11 cells assessed as inhibition of cell growth incubated for 72 hrs by celltiter-glo assay; assay type: functional, cell-based; conditions: MV4-11, 72 h
LAMA-84 = test: Antiproliferative activity against human LAMA-84 cells assessed as inhibition of cell growth incubated for 72 hrs by celltiter-glo assay; assay type: functional, cell-based; conditions: LAMA-84, 72 h
[20] = Metabolic stability in rat liver microsomes assessed as intrinsic clearance measured upto 60 mins in presence of NADPH by LC/MS-MS analysis; assay type: ADME, Microsome; conditions: read-out: CLH
[21] = Metabolic stability in rat liver microsomes assessed as half life measured upto 60 mins in presence of NADPH by LC/MS-MS analysis; assay type: ADME, Microsome
MM1.S [22] = test: Antiproliferative activity against human MM1.S cells assessed as inhibition of cell growth incubated for 72 hrs by celltiter-glo assay; assay type: functional, cell-based
[23] = Toxicity in BALB/c mouse assessed as animal death at 60 mg/kg, po measured on day 6,7 and 11; assay type: organism-based; conditions: in vivo, 576 h, time 24 day
[24] = AUC (0 to t) in male Sprague-Dawley rat at 10 mg/kg, po measured upto 30 hrs by LC-MS/MS analysis; assay type: ADME, organism-based; conditions: in vivo
SW872 = test: Antiproliferative activity against human SW872 cells assessed as inhibition of cell growth incubated for 72 hrs by celltiter-glo assay; assay type: functional, cell-based; conditions: SW872, 72 h
MM1.S [25] = test: Inhibition of CRM1 protein expression in human MM1.S cells at 0.25 to 1.25 uM by Western blot analysis; assay type: functional, cell-based; conditions: dose 0.25-1.25 µM, time 2-24 hrs
[26] = target: Ran-specific GTPase-activating protein (Homo sapiens, UniProt P43487); test: Inhibition of RANBP1 nuclear export in human U2OS cells assessed as increase in fluorescence intensity measured for 15 mins by DAPI staining based fluorescence microscopic analysis; assay type: cell-based
[27] = AUC in male Sprague-Dawley rat plasma at 10 mg/kg, IG measured at 6 hrs by LC-MS/MS analysis; assay type: ADME, organism-based; conditions: po
HCT-116 = test: Antiproliferative activity against human HCT-116 cells assessed as inhibition of cell growth incubated for 72 hrs by celltiter-glo assay; assay type: functional, cell-based; conditions: HCT-116, 72 h
[28] = Half life in male Sprague-Dawley rat at 2 mg/kg, iv measured upto 30 hrs by LC-MS/MS analysis; assay type: ADME, organism-based; conditions: in vivo
[29] = Toxicity in NOD-SCID mouse assessed as hyperplasia of crypt in intestine at 60 mg/kg, po measured every 2 days for 21 days by H and E staining based analysis; assay type: organism-based; conditions: in vivo, 504 h, time 21 day
[30] = Metabolic stability in monkey liver microsomes assessed as intrinsic clearance measured upto 60 mins in presence of NADPH by LC/MS-MS analysis; assay type: ADME, Macaca mulatta, Microsome; conditions: rhesus monkey, read-out: CLH
[31] = Toxicity in NOD-SCID mouse assessed as shortening of villi in intestine at 15 mg/kg, po measured every 2 days for 21 days by H and E staining based analysis; assay type: organism-based; conditions: in vivo, 504 h, time 21 day
[32] = Toxicity in BALB/c mouse assessed as decrease in body weight at 30 mg/kg, po administered once daily for 21 days; assay type: organism-based; conditions: in vivo, 504 h, time 21 day
[33] = AUC (0 to t) in male Sprague-Dawley rat at 2 mg/kg, iv measured upto 30 hrs by LC-MS/MS analysis; assay type: ADME, organism-based; conditions: in vivo
MM1.S [34] = test: Inhibition of CRM1 protein expression in human MM1.S cells by Western blot analysis; assay type: functional, cell-based; conditions: dose 0.25-1.25 µM
AN3-CA = test: Antiproliferative activity against human AN3-CA cells assessed as inhibition of cell growth incubated for 72 hrs by celltiter-glo assay; assay type: functional, cell-based
MM1.S [35] = test: Induction of apoptosis in human MM1.S cells at 0.5 to 1 uM incubated for 48 hrs by Annexin V-FITC/PI staining based flow cytometry analysis; assay type: functional, cell-based; conditions: dose 0.5-1 µM
[36] = Toxicity in NOD-SCID mouse assessed as decrease in villus height to crypt depth ratio at 60 mg/kg, po measured every 2 days for 21 days by H and E staining based analysis; assay type: organism-based; conditions: in vivo, 504 h, time 21 day
[37] = target: Voltage-gated inwardly rectifying potassium channel KCNH2 (Homo sapiens, UniProt Q12809); test: Inhibition of hERG in HEK293 cells; assay type: toxicity, cell-based
[38] = AUC (0 to infinity) in male Sprague-Dawley rat at 2 mg/kg, iv measured upto 30 hrs by LC-MS/MS analysis; assay type: ADME, organism-based; conditions: in vivo
[39] = Metabolic stability in dog liver microsomes assessed as half life measured upto 60 mins in presence of NADPH by LC/MS-MS analysis; assay type: ADME, Canis lupus familiaris, Microsome
LoVo = test: Antiproliferative activity against human LoVo cells assessed as inhibition of cell growth incubated for 72 hrs by celltiter-glo assay; assay type: functional, cell-based
[40] = Half life in male Sprague-Dawley rat at 10 mg/kg, po measured upto 30 hrs by LC-MS/MS analysis; assay type: ADME, organism-based; conditions: in vivo
RPMI-8226 = test: Antiproliferative activity against human RPMI-8226 cells assessed as inhibition of cell growth incubated for 72 hrs by celltiter-glo assay; assay type: functional, cell-based; conditions: RPMI-8226, 72 h

Exportin-1 (Homo sapiens), sequence (O14980 whole entry): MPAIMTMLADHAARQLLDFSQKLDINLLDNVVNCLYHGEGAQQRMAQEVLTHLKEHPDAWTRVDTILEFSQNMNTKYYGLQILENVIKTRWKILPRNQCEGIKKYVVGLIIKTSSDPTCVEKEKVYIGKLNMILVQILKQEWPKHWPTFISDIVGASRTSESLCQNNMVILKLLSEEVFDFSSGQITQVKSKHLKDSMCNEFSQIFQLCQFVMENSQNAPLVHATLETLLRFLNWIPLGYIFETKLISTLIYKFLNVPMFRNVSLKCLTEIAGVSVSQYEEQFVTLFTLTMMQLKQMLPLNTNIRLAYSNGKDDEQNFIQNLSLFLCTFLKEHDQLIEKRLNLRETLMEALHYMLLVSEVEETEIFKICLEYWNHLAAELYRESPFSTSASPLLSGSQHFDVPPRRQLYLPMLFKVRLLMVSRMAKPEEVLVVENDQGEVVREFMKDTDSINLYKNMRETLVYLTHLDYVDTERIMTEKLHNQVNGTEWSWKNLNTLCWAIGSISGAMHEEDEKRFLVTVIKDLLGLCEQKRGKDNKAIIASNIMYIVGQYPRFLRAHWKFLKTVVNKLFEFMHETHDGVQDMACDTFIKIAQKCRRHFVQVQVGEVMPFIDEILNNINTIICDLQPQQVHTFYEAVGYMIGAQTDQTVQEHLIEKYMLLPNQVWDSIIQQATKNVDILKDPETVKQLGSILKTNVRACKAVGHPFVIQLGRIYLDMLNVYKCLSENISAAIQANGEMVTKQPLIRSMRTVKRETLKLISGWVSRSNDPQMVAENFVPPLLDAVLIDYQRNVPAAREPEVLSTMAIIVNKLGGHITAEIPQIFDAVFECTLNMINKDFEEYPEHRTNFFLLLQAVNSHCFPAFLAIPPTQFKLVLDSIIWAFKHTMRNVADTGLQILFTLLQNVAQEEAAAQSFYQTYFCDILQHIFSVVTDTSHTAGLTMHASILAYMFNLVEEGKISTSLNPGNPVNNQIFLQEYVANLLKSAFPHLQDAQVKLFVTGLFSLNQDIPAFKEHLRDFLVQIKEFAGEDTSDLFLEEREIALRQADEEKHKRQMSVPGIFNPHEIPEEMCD
Ran-specific GTPase-activating protein, sequence (P43487 whole entry): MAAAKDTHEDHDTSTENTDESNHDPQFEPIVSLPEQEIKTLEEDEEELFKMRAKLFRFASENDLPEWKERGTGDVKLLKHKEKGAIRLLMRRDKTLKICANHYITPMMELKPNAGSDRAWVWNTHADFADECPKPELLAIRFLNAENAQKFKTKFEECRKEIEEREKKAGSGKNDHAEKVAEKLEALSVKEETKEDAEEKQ
Voltage-gated inwardly rectifying potassium channel KCNH2, sequence (Q12809 whole entry): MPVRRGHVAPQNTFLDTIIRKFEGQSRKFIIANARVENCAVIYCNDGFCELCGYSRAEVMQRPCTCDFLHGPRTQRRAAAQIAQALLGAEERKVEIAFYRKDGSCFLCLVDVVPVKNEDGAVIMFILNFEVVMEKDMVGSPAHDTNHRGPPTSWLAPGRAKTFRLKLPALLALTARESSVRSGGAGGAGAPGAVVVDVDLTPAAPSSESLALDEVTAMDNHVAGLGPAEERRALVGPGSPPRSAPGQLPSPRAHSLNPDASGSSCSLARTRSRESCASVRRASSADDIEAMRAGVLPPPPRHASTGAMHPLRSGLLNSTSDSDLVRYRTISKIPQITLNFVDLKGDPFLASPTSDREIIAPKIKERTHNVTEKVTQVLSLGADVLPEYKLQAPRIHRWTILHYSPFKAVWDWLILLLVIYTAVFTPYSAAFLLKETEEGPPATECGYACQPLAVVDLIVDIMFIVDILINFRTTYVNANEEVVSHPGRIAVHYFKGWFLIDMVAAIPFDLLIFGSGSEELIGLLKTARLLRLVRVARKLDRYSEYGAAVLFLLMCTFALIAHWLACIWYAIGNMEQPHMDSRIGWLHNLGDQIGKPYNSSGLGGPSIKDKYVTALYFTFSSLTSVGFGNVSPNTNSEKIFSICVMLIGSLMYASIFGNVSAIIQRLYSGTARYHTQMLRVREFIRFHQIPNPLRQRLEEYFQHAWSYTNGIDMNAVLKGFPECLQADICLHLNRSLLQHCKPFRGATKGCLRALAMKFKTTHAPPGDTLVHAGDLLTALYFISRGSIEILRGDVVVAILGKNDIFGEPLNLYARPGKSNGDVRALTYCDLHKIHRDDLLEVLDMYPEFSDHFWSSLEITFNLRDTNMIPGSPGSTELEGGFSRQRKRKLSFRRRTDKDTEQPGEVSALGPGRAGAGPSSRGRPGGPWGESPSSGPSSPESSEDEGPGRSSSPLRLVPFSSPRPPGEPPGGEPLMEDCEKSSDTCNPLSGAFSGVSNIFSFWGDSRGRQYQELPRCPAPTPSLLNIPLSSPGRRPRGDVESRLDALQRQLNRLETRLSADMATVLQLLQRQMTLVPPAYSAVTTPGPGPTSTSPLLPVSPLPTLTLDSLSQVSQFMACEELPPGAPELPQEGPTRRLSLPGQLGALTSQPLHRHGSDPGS

SMILES: NC(=O)/C(=C/n1cnc(-c2cc(C(F)(F)F)cc(C(F)(F)F)c2)n1)c1cncnc1 [ELTANEXOR]
- IC50 (KMS-11): 1260 nM
- microsomal CLint [1]: 15.6 µL/min/mg
- half-life [2]: > 2 h
- Activity (MM1.S [3]): Active
- Activity [4]: Toxic
- IC50 [5]: 2700 nM
- Activity [6]: Toxic
- IC50 (BXPC-3): 2170 nM
- microsomal CLint [7]: 0.2 µL/min/mg
- Activity [8]: Non-toxic
- microsomal CLint [9]: 3.2 µL/min/mg
- Activity [10]: Active
- IC50 (ARH-77): 435 nM
- AUC(0-inf) [11]: 2590 ng·h/mL
- Cmax [12]: 141 ng/mL
- IC50 (MOLM-13): 435 nM
- bioavailability [13]: 52%
- half-life [14]: > 2 h
- half-life [15]: > 2 h
- Cmax [16]: 720 ng/mL
- Tmax [17]: 1 h
- Activity [18]: Toxic
- AUC at 6 h [19]: 83.3 ng·h/mL
- IC50 (MV4-11): 55.6 nM
- IC50 (LAMA-84): 2910 nM
- microsomal CLint [20]: 15.5 µL/min/mg
- half-life [21]: > 2 h
- IC50 (MM1.S [22]): 84.7 nM
- Activity [23]: Toxic
- AUC(0-t) at 30 h [24]: 2540 ng·h/mL
- IC50 (SW872): 1090 nM
- inhibition (MM1.S [25]): Time-dependent-effect
- IC50 [26]: 550 nM
- AUC at 6 h [27]: 1940 ng·h/mL
- IC50 (HCT-116): 130 nM
- half-life [28]: 3 h
- Activity [29]: Non-toxic
- microsomal CLint [30]: 11.8 µL/min/mg
- Activity [31]: Non-toxic
- Activity [32]: Non-toxic
- AUC(0-t) at 30 h [33]: 963 ng·h/mL
- inhibition (MM1.S [34]): Dose-dependent-effect
- IC50 (AN3-CA): 1170 nM
- Activity (MM1.S [35]): Active
- Activity [36]: Non-toxic
- IC50 [37]: 8200 nM
- AUC(0-inf) [38]: 998 ng·h/mL
- half-life [39]: > 2 h
- IC50 (LoVo): 304 nM
- half-life [40]: 2.7 h
- IC50 (RPMI-8226): 217 nM

SMILES: Cc1ccc(/C(=C\c2cnn(-c3cc(C(F)(F)F)cc(C(F)(F)F)c3)c2)C(N)=O)cn1
- Activity (MM1.S [22]): inactive

- IC50 (MM1.S [22]): 189 nM
SMILES: CNC(=O)/C(=C/n1cnc(-c2cc(C(F)(F)F)cc(C(F)(F)F)c2)n1)c1cncnc1

- IC50 (MM1.S [22]): 1500 nM
SMILES: O=C(NCc1ccccn1)/C(=C/n1cnc(-c2cc(C(F)(F)F)cc(C(F)(F)F)c2)n1)c1cncnc1

- IC50 (MM1.S [22]): 99.3 nM
SMILES: COC(=O)CNC(=O)/C(=C/n1cnc(-c2cc(C(F)(F)F)cc(C(F)(F)F)c2)n1)c1cncnc1

SMILES: N#Cc1ccc(/C(=C\C(N)=O)c2cnn(-c3cc(C(F)(F)F)cc(C(F)(F)F)c3)c2)cn1
- Activity (MM1.S [22]): inactive

- IC50 (MM1.S [22]): 1750 nM
SMILES: NC(=O)/C(=C/c1cnn(-c2cc(C(F)(F)F)cc(C(F)(F)F)c2)c1)c1cncnc1
